Source: US9668477B2, “Active compound combinations” (BAYER CROPSCIENCE AG, priority 2012, dated 2017)
Where two headings read alike, the source gives them in different places.

What was measured:
Assay type in all cases: in vivo
Puccinia triticina = experiment: Puccinia triticina-test (wheat)/preventive; details: Table E1, 8 days after inoculation
Experimental: (§1) Solvent: 49 parts by weight of N,N-dimethylacetamide
(§2) Emulsifier: 1 part by weight of alkylaryl polyglycol ether
(§3) To produce a suitable preparation of active compound, 1 part by weight of active compound or active compound combination is mixed with the stated amounts of solvent and emulsifier, and the concentrate is diluted with water to the desired concentration.
(§4) To test for preventive activity, young plants are sprayed with the preparation of active compound or active compound combination at the stated rate of application.
After the spray coating has been dried, the plants are sprayed with a spore suspension of Puccinia triticina. The plants remain for 48 hours in an incubation cabinet at approximately 20° C. and a relative atmospheric humidity of approximately 100%.
(§5) The plants are placed in the greenhouse at a temperature of approximately 20° C. and a relative atmospheric humidity of approximately 80%.
(§6) The test is evaluated 8 days after the inoculation. 0% means an efficacy which corresponds to that of the untreated control, while an efficacy of 100% means that no disease is observed.

Venturia inaequalis = experiment: Venturia test (apples)/preventive; details: Table I1, 10 days after inoculation
Experimental: (§7) Solvent: 24.5 parts by weight of acetone • 24.5 parts by weight of dimethylacetamide Emulsifier: 1 part by weight of alkylaryl polyglycol ether To produce a suitable preparation of active compound, 1 part by weight of active compound is mixed with the stated amounts of solvent and emulsifier, and the concentrate is diluted with water to the desired concentration. To test for preventive activity, young plants are sprayed with the preparation of active compound at the stated rate of application.

Uromyces appendiculatus = experiment: Uromyces test (beans)/preventive; details: 10 days after inoculation
Experimental: (§8) Solvent: 24.5 parts by weight of acetone • 24.5 parts by weight of dimethylacetamide
as §2
(§9) To produce a suitable preparation of active compound, 1 part by weight of active compound is mixed with the stated amounts of solvent and emulsifier, and the concentrate is diluted with water to the desired concentration.
(§10) To test for preventive activity, young plants are sprayed with the preparation of active compound at the stated rate of application. After the spray coating has dried on, the plants are inoculated with an aqueous spore suspension of the causal agent of bean rust (Uromyces appendiculatus) and then remain for 1 day in an incubation cabinet at approximately 20° C. and a relative atmospheric humidity of 100%.
The plants are then placed in a greenhouse at approximately 21° C. and a relative atmospheric humidity of approximately 90%.
The test is evaluated 10 days after the inoculation. 0% means an efficacy which corresponds to that of the untreated control, while an efficacy of 100% means that no disease is observed.

Leptosphaeria nodorum = Leptosphaeria nodorum test (wheat)/preventive; details: Table C1; 160 ppm a.i.; 8 days after inoculation
Experimental: Solvent: 49 parts by weight of N,N-dimethylacetamide Emulsifier: 1 part by weight of alkylaryl polyglycol ether To produce a suitable preparation of active compound, 1 part by weight of active compound or active compound combination is mixed with the stated amounts of solvent and emulsifier, and the concentrate is diluted with water to the desired concentration. To test for preventive activity, young plants are sprayed with the preparation of active compound or active compound combination at the stated rate of application. After the spray coating has been dried, the plants are sprayed with a spore suspension of Leptosphaeria nodorum.

Alternaria solani = experiment: Alternaria test (tomatoes)/preventive; details: 3 days after inoculation
Experimental: as §8, §2, §9
as §10, with “Alternaria solani. The plants are” for “the causal agent of bean rust (Uromyces appendiculatus) and”, “placed” for “remain for 1 day”
The test is evaluated 3 days after the inoculation. 0% means an efficacy which corresponds to that of the untreated control while an efficacy of 100% means that no disease is observed.

[1] = test system: Blumeria graminis f.sp. hordei; experiment: Blumeria test (barley)/preventive; details: Table B1; 160 ppm a.i.; 7 days after inoculation
Experimental: Solvent: 49 parts by weight of N,N-dimethylacetamide Emulsifier: 1 part by weight of alkylaryl polyglycol ether To produce a suitable preparation of active compound, 1 part by weight of active compound or active compound combination is mixed with the stated amounts of solvent and emulsifier, and the concentrate is diluted with water to the desired concentration. To test for preventive activity, young plants are sprayed with the preparation of active compound or active compound combination at the stated rate of application. After the spray coating has been dried, the plants are dusted with spores of Blumeria graminis f.sp. hordei.

Sphaerotheca fuliginea = experiment: Sphaerotheca test (cucumbers)/preventive; details: Table G1, 7 days after inoculation
Experimental: as §7, with “application. After the spray coating has dried on, the plants are inoculated with an aqueous spore suspension of Sphaerotheca fuliginea.” for “application.”

Pyrenophora teres = experiment: Pyrenophora teres-test (barley)/preventive; details: Table F1; 160 ppm a.i.; 8 days after inoculation
Experimental: as §1, §2, §3, §4
After the spray coating has been dried, the plants are sprayed with a spore suspension of Pyrenophora teres. The plants remain for 48 hours in an incubation cabinet at approximately 20° C. and a relative atmospheric humidity of approximately 100%.
as §5, §6

Phakopsora pachyrhizi = experiment: Phakopsora test (soybeans)/preventive; details: Phakopsora pachyrhizi, 168 h, 7 days after inoculation, read-out: Efficacy in % found; for pest or weed control at 0.25 ppm: 0.25 ppm a.i.

CCN(C)/C=N/c1cc(C)c(Oc2ccccc2)cc1C [(Id)]
Efficacy in % found (Puccinia triticina; 80 ppm a.i.): 70%
Efficacy in % found (Puccinia triticina; 160 ppm a.i.): 80%
Efficacy in % found (Venturia inaequalis; 0.25 ppm a.i.): 0%
Efficacy in % found (Venturia inaequalis; 0.5 ppm a.i.): 0%
Efficacy in % found (Venturia inaequalis; 1 ppm a.i.): 0%
Efficacy in % found (Uromyces appendiculatus; Table H1, 0.1 ppm a.i.): 25%
Efficacy in % found (Uromyces appendiculatus; Table H1, 0.25 ppm a.i.): 60%
Efficacy in % found (Uromyces appendiculatus; Table H2, 0.2 ppm a.i.): 0%
Efficacy in % found (Uromyces appendiculatus; Table H3, 0.125 ppm a.i.): 0%
Efficacy in % found (Uromyces appendiculatus; Table H3, 0.25 ppm a.i.): 0%
Efficacy in % found (Leptosphaeria nodorum): 50%
Efficacy in % found (Alternaria solani; Table A1, 0.25 ppm a.i.): 0%
Efficacy in % found (Alternaria solani; Table A1, 0.5 ppm a.i.): 24%
Efficacy in % found (Alternaria solani; Table A1, 1 ppm a.i.): 18%
Efficacy in % found (Alternaria solani; Table A2, 0.5 ppm a.i.): 0%
Efficacy in % found (Alternaria solani; Table A2, 1 ppm a.i.): 11%
Efficacy in % found [1]: 60%
Efficacy in % found (Sphaerotheca fuliginea; 0.25 ppm a.i.): 0%
Efficacy in % found (Sphaerotheca fuliginea; 0.5 ppm a.i.): 0%
Efficacy in % found (Sphaerotheca fuliginea; 1.25 ppm a.i.): 10%
Efficacy in % found (Pyrenophora teres): 13%
pest or weed control at 0.25 ppm (Phakopsora pachyrhizi; Table D1): 28%
pest or weed control at 0.5 ppm (Phakopsora pachyrhizi; Table D1, 0.5 ppm a.i.): 40%
pest or weed control at 1 ppm (Phakopsora pachyrhizi; Table D1, 1 ppm a.i.): 70%
pest or weed control at 0.25 ppm (Phakopsora pachyrhizi; Table D2): 45%
